# Biological target: T1, HbS/A (Homo sapiens, UniProt P68871+P69905, E7V)
# T1 construct: A mixture of HbS/A was purified from blood; from tissue; host or cells: blood of homozygous sickle cell patients
# Experiment: Relaxed-to-tense transition assay (R/T assay)
# Assay type: biochemical
# Conditions: compound at 30 μm; 3 μM HbS/A
# Method: A relaxed-to-tense transition assay (“R/T assay”) was used to determine the ability of substituted benzaldehyde compounds to maintain the high-oxygen affinity relaxed (R) state of hemoglobin under deoxygenated conditions. This ability can be expressed as a “delta R” value (i.e., the change in the time-period of the R state after hemoglobin is treated with a compound, as compared to the period without treatment with the compound). Delta R is the % R to remaining after the compounds treatment compared with no treatment (e.g. if R % without treatment is 8% while with treatment with a target compound is 48% R at 30 μM, then % R is 40% for that compound.
# A mixture of HbS/A was purified from blood obtained from homozygous sickle cell patients though the Hemoglobinopathy Center at Children's Hospital Oakland Research Institute (CHORI) with Institutional Review Board approval. HbS/A (at a final concentration of 3 μM) was incubated for 1 hr at 37° C. in presence or absence of compounds in […] potassium phosphate buffer, pH=7.4 and 30 μM 2, 3 diphosphoglycerate (DPG) in 96 well plates in a final volume of 160 μl. Compounds were added at different concentrations (3 μM to 100 μM final concentrations). Plates were covered with a Mylar film. After incubation was completed the Mylar cover was removed and the plates were placed in a Spectrostar Nano plate reader previously heated at 37° C. Five minutes later, N2 (flow rate=20 L/min) was flowed through the spectrophotometer. Spectroscopic measurements (300 nm to 700 nm) were taken every 5 min for 2 hours. Data analysis was performed by using linear regression from the data retrieved for all wavelengths.
# Table 4 below lists the delta R values where + indicates a delta R of between 0 and 30, ++ indicates a delta R of between 30 and 50, and +++ indicates a delta R of 50 or greater. Unless noted otherwise, the compounds in Table 2 were tested at 9 μM.
smiles,measurement,value
"CC(C)n1nccc1-c1ncccc1COc1cccc(O)c1C=O [Compound 43, 2-hydroxy-6-((2-(1-isopropyl-1H-pyrazol-5-yl)pyridin-3-yl)methoxy)benzaldehyde]",delta R (%),+++ (30 μm) (+++ indicates a delta R of 50 or greater)
